In US4472304A, “(Amido)N-substituted bleomycins, salts thereof and process for preparation thereof” (Nippon Kayaku Kabushiki Kaisha, priority 1981, dated 1984):

Columns and labels:
Bacillus subtilis = experiment: Antimicrobial activity against Bacillus subtilis (agar plate-cylinder); type: cell-based; conditions: standard bleomycin A2 (copper-free) assumed 1,000 mcg potency/mg
Procedure: (§1) 2. ANT[…] MYC[…] ATCC 607 AND BACILLUS SUBTILIS
(§2) The antimicrobial activity was tested against the captioned test organisms by the method of agar plate-cylinder. The activity was recorded on the assumption that the activity of standard sample of bleomycin A2 (copper-free form) is 1,000 mcg poteney/mg.

[1] = test system: Mycobacterium smegmatis ATCC 607; experiment: Antimicrobial activity against Mycobacterium smegmatis ATCC 607 (agar plate-cylinder); type: cell-based; conditions: standard bleomycin A2 (copper-free) assumed 1,000 mcg potency/mg
Procedure: as §1, §2

Row | SMILES | Antimicrobial potency of Cu-free compound against Bacillus subtilis (Bacillus subtilis) [mcg potency/mg] | Antimicrobial potency of Cu-free compound against Mycobacterium smegmatis ATCC 607 [1] [mcg potency/mg]
1 | Cc1c(N)nc(C(CC(N)=O)NCC(N)C(=O)NCc2ccc(Cl)cc2)nc1C(=O)NC(C(=O)NC(C)C(O)C(C)C(=O)NC(C(=O)NCCc1nc(-c2nc(C(=O)NCCCNC(C)c3ccccc3)cs2)cs1)C(C)O)C(OC1OC(CO)C(O)C(O)C1OC1OC(CO)C(O)C(OC(N)=O)C1O)c1cnc[nH]1 [Compound 24, 3-((S)-1'-phenylethyl)aminopropylamino-(amido)N--[p-chlorobenzyl]-BLM] | 1184 | 56328
2 | CCCCCCCCCCCCCCCCCCNC(=O)C(N)CNC(CC(N)=O)c1nc(N)c(C)c(C(=O)NC(C(=O)NC(C)C(O)C(C)C(=O)NC(C(=O)NCCc2nc(-c3nc(C(=O)NCCCNC(C)c4ccccc4)cs3)cs2)C(C)O)C(OC2OC(CO)C(O)C(O)C2OC2OC(CO)C(O)C(OC(N)=O)C2O)c2cnc[nH]2)n1 [Compound 25, 3-((S)-1'-phenylethylamino)propylamino-(amido)N--[stearyl]-BLM] | 0 | 210
3 | CCCCCCCCCCCCNC(=O)C(N)CNC(CC(N)=O)c1nc(N)c(C)c(C(=O)NC(C(=O)NC(C)C(O)C(C)C(=O)NC(C(=O)NCCc2nc(-c3nc(C(=O)NCCCNC(C)c4ccccc4)cs3)cs2)C(C)O)C(OC2OC(CO)C(O)C(O)C2OC2OC(CO)C(O)C(OC(N)=O)C2O)c2cnc[nH]2)n1 [Compound 26, 3-((S)-1'-phenylethylamino)propylamino-(amido)N--[lauryl]-BLM] | 384 | 3920
4 | CCCCCCCCNC(=O)C(N)CNC(CC(N)=O)c1nc(N)c(C)c(C(=O)NC(C(=O)NC(C)C(O)C(C)C(=O)NC(C(=O)NCCc2nc(-c3nc(C(=O)NCCCNC(C)c4ccccc4)cs3)cs2)C(C)O)C(OC2OC(CO)C(O)C(O)C2OC2OC(CO)C(O)C(OC(N)=O)C2O)c2cnc[nH]2)n1 [Compound 27, 3-((S)-1'-phenylethylamino)propylamino-(amido)N--[octyl]-BLM] | 886 | 45100
5 | COc1ccc2[nH]cc(CCNC(=O)C(N)CNC(CC(N)=O)c3nc(N)c(C)c(C(=O)NC(C(=O)NC(C)C(O)C(C)C(=O)NC(C(=O)NCCc4nc(-c5nc(C(=O)NCCCNC(C)c6ccccc6)cs5)cs4)C(C)O)C(OC4OC(CO)C(O)C(O)C4OC4OC(CO)C(O)C(OC(N)=O)C4O)c4cnc[nH]4)n3)c2c1 [Compound 28, 3-((S)-1'-phenylethylamino)propylamino-(amido)N--[5-methyoxyindol-3-ylethyl]-BLM] | 586 | 18650
6 | Cc1c(N)nc(C(CC(N)=O)NCC(N)C(=O)NCCCCCCCCCCCCN)nc1C(=O)NC(C(=O)NC(C)C(O)C(C)C(=O)NC(C(=O)NCCc1nc(-c2nc(C(=O)NCCCNC(C)c3ccccc3)cs2)cs1)C(C)O)C(OC1OC(CO)C(O)C(O)C1OC1OC(CO)C(O)C(OC(N)=O)C1O)c1cnc[nH]1 [Compound 29, 3-((S)-1'-phenylethylamino)propylamino-(amido)N--[do-decanyl]-BLM] | 5400 | 14200
7 | Cc1c(N)nc(C(CC(N)=O)NCC(N)C(=O)NC(Cc2ccccc2)c2ccccc2)nc1C(=O)NC(C(=O)NC(C)C(O)C(C)C(=O)NC(C(=O)NCCc1nc(-c2nc(C(=O)NCCCNC(C)c3ccccc3)cs2)cs1)C(C)O)C(OC1OC(CO)C(O)C(O)C1OC1OC(CO)C(O)C(OC(N)=O)C1O)c1cnc[nH]1 [Compound 30, 3-((S)-1'-phenylethylamino)propylamino-(amido)N--[1',2'-diphenyl-ethyl]-BLM] | 190 | 33802
8 | Cc1c(N)nc(C(CC(N)=O)NCC(N)C(=O)NC(c2ccccc2)c2ccccc2)nc1C(=O)NC(C(=O)NC(C)C(O)C(C)C(=O)NC(C(=O)NCCc1nc(-c2nc(C(=O)NCCCNC(C)c3ccccc3)cs2)cs1)C(C)O)C(OC1OC(CO)C(O)C(O)C1OC1OC(CO)C(O)C(OC(N)=O)C1O)c1cnc[nH]1 [Compound 31, 3-((S)-1'-phenylethylamino)propylamino-(amido)N--[diphenylmethyl]-BLM] | 430 | 54645
9 | Cc1c(N)nc(C(CC(N)=O)NCC(N)C(=O)NC2CCN(Cc3ccccc3)CC2)nc1C(=O)NC(C(=O)NC(C)C(O)C(C)C(=O)NC(C(=O)NCCc1nc(-c2nc(C(=O)NCCCNC(C)c3ccccc3)cs2)cs1)C(C)O)C(OC1OC(CO)C(O)C(O)C1OC1OC(CO)C(O)C(OC(N)=O)C1O)c1cnc[nH]1 [Compound 35, 3-((S)-1'-phenylethylamino)propylamino-(amido)N--[N--benzyl-piperazin-4-yl]-BLM] | 2159 | 18537
10 | CCCCCCCCNC(=O)C(N)CNC(CC(N)=O)c1nc(N)c(C)c(C(=O)NC(C(=O)NC(C)C(O)C(C)C(=O)NC(C(=O)NCCc2nc(-c3nc(C(=O)NCCCN(C)CCCNCc4ccc(Cl)cc4)cs3)cs2)C(C)O)C(OC2OC(CO)C(O)C(O)C2OC2OC(CO)C(O)C(OC(N)=O)C2O)c2cnc[nH]2)n1 (centres unmarked) [Compound 40, 3-{N--methyl-N--[3-(p-chlorobenzyl)aminopropyl]amino}-propylamino-(amido)N--[octyl]-BLM] | 1808 | 38200
11 | Cc1c(N)nc(C(CC(N)=O)NCC(N)C(=O)NC(Cc2ccccc2)c2ccccc2)nc1C(=O)NC(C(=O)NC(C)C(O)C(C)C(=O)NC(C(=O)NCCc1nc(-c2nc(C(=O)NCCCN(C)CCCNCc3ccc(Cl)cc3)cs2)cs1)C(C)O)C(OC1OC(CO)C(O)C(O)C1OC1OC(CO)C(O)C(OC(N)=O)C1O)c1cnc[nH]1 (centres unmarked) [Compound 41, 3-{N--methyl-N--[3-(p-chlorobenzyl)aminopropyl]amino}propyl-amino-(amido)N--[1,2-diphenylethyl]-BLM] | 521 | 23342
12 | Cc1c(N)nc(C(CC(N)=O)NCC(N)C(=O)NC(C)CCCC(C)C)nc1C(=O)NC(C(=O)NC(C)C(O)C(C)C(=O)NC(C(=O)NCCc1nc(-c2nc(C(=O)NCCCN(C)CCCNCc3ccc(Cl)cc3)cs2)cs1)C(C)O)C(OC1OC(CO)C(O)C(O)C1OC1OC(CO)C(O)C(OC(N)=O)C1O)c1cnc[nH]1 (centres unmarked) [Compound 42, 3-{N--methyl-N--[3-(p-chlorobenzyl)aminopropyl]amino}propyl-amino-(amido)N--[1,5-dimethylhexyl]-BLM] | 933 | 31834
13 | CCCCCCCCNC(=O)C(N)CNC(CC(N)=O)c1nc(N)c(C)c(C(=O)NC(C(=O)NC(C)C(O)C(C)C(=O)NC(C(=O)NCCc2nc(-c3nc(C(=O)NCCCN(C)CCCNCCc4ccc(Cl)cc4)cs3)cs2)C(C)O)C(OC2OC(CO)C(O)C(O)C2OC2OC(CO)C(O)C(OC(N)=O)C2O)c2cnc[nH]2)n1 (centres unmarked) [Compound 44] | 1898 | 38750
14 | CCCCN(CCCC)CCCNC(=O)C(N)CNC(CC(N)=O)c1nc(N)c(C)c(C(=O)NC(C(=O)NC(C)C(O)C(C)C(=O)NC(C(=O)NCCc2nc(-c3nc(C(=O)NCCCN(C)CCCNCCc4ccc(Cl)cc4)cs3)cs2)C(C)O)C(OC2OC(CO)C(O)C(O)C2OC2OC(CO)C(O)C(OC(N)=O)C2O)c2cnc[nH]2)n1 (centres unmarked) [Compound 46, 3-{N--methyl-N--[3-(2-(p-chlorophenyl)ethyl)aminopropyl]amino}-propylamino-(amido)N--[3-(di-n-butylamino)propyl]-BLM] | 3690 | 31690
15 | CCCCNCCCN(C)CCCNC(=O)C(N)CNC(CC(N)=O)c1nc(N)c(C)c(C(=O)NC(C(=O)NC(C)C(O)C(C)C(=O)NC(C(=O)NCCc2nc(-c3nc(C(=O)NCCC[N+](C)(CCCN(Cc4ccccc4)Cc4ccccc4)Cc4ccccc4)cs3)cs2)C(C)O)C(OC2OC(CO)C(O)C(O)C2OC2OC(CO)C(O)C(OC(N)=O)C2O)c2cnc[nH]2)n1 (centres unmarked) [Compound 50, 3-{N--methyl-N--benzyl-N--[3-(dibenzylamino)propyl]amino}-propylamino-(amido)N--[3-[N--methyl-N--(3-n-butylaminopropyl)]-aminopropyl]-BLM] | 376 | 1417
16 | CCCCN(CCCC)CCCNC(=O)C(N)CNC(CC(N)=O)c1nc(N)c(C)c(C(=O)NC(C(=O)NC(C)C(O)C(C)C(=O)NC(C(=O)NCCc2nc(-c3nc(C(=O)NCCCN(C)CCCNCc4ccc(C#N)cc4)cs3)cs2)C(C)O)C(OC2OC(CO)C(O)C(O)C2OC2OC(CO)C(O)C(OC(N)=O)C2O)c2cnc[nH]2)n1 (centres unmarked) [Compound 61, 3-{N--methyl-N--[3-(p-cyanobenzylamino)propyl]amino}-propylamino-(amido)N--[3-(di-n-butylamino)propyl]-BLM] | 4755 | 14730
